Assay results: US20150259331A1, “PROTOZOAN PARASITE GROWTH INHIBITORS” (Northeastern University, priority 2014, published 2015)
Read-outs that look alike come from different tables or passages of the source.

Columns and labels:
[1] = system: T. brucei brucei Lister 427; experiment: Trypanosome replication assay; assay type: cell-based, Trypanosoma brucei brucei; conditions: Trypanosoma brucei
T. cruzi = T. cruzi growth inhibition; assay type: cell-based, Trypanosoma cruzi; conditions: Trypanosoma cruzi
L. major amastigote = L. major amastigote assay; assay type: cell-based; conditions: Leishmania major
P. falciparum D6 = P. falciparum D6 assay; assay type: cell-based; conditions: Plasmodium falciparum; strain D6
P. falciparum W2 = P. falciparum W2 assay; assay type: cell-based; conditions: Plasmodium falciparum; strain W2; read-out: P. falciparum W2 (EC50)
P. falciparum C235 = P. falciparum C235 assay; assay type: cell-based; conditions: Plasmodium falciparum; strain C235; read-out: P. falciparum C235 (EC50)
logD = assay type: physicochemical
[2] = Thermodynamic aqueous solubility; assay type: physicochemical
[3] = Mouse oral pharmacokinetic study; assay type: in vivo, male BALB/c mice
Protocol: Test system. Healthy male BALB/c mice (8-12 weeks old) weighing between 20 to 35 g were procured from In vivo biosciences, Bengaluru, India. Maximum three mice were housed in each polycarbonate cage. […] The temperature and humidity were recorded by auto-controlled data logger system. Animals were provided laboratory rodent diet ([…], Bengaluru) ad libitum and were provided fresh water ad libitum (reverse osmosis water treated with UV light). Study Design. […] The dosing volume administered for was 10 mL/kg. Formulation Preparation. Formulation of NEU-617 was given orally. The strength of oral suspension formulation was 4 mg/mL. The weighed quantity (39.22 mg) of compound NEU-617 for p.o. dosing was added in a mortar. […] Sample Collection. […] The blood samples (approximately 60 μL) were collected from the retro-orbital plexus into labeled tubes, containing K2EDTA solution, as an anticoagulant. Plasma was harvested from the blood by centrifugation at 4000 rpm for 10 min at 4±2° C. and stored below -70° C. until bioanalysis. […] Following collection, the brain samples were washed by dipping in 20 mL of ice-cold phosphate buffer saline (pH 7.4), dried gently on a filter paper, weighed and placed in polypropylene tubes. Further brain samples were homogenized using ice-cold phosphate buffer saline (pH 7.4) and the total homogenate volume was thrice the brain weight. The brain samples were stored at -70° C. until bioanalysis. Data analysis. The Non-Compartmental-Analysis module in WinNonlin® (Version 5.2) was used to assess the pharmacokinetic parameters. Peak plasma concentrations (Cmax) and time for the peak plasma concentrations (Tmax) were the observed values. The areas under the concentration time curve (AUClast and AUCinf) were calculated by linear trapezoidal rule.

T. brucei brucei CA427 = experiment: Drug efficacy in a mouse model of human African trypanosomiasis
Excerpt: The kinetoplast and nucleus can be tracked by microscopy during the cell cycle, which begins with trypanosomes harboring one nucleus (1N) and one kinetoplast (1K) (i.e., 1K1N cells). A kinetoplast that is replicating its (DNA) (i.e., kDNA) and increasing the organelle's mass is observed as an elongated kinetoplast (1Ke). Fission (segregation) of 1Ke kinetoplasts into two daughter kinetoplasts (2K) inside the same cell is coincident with the nuclear S-phase and produces 2K1N trypanosomes. Mitosis then occurs, yielding trypanosomes containing two kinetoplasts and two nuclei (2K2N). Following cell division, each daughter trypanosome has a 1K1N configuration of the organelles.
Swiss Webster (female) mice, aged 8-10 weeks, were intraperitoneally inoculated with 10^3 T. brucei CA427 strain using a 1 ml hypodermic syringe and 26G ½″ needle (day 0). The mice were assigned to control or NEU617 -treated groups (four per group). Treatment was initiated one-day post infection for two weeks. Control group received the vehicle only. Drug-treated mice were given 10 mg/kg NEU617 twice daily at 12 h interval (orally or intraperitoneally) based on their body weights. NEU617 was reconstituted in (i) DMSO for intraperitoneal (I.P.) administration, and (ii) N-methyl-2-pyrrolidone and polyethylene glycol 300 (1:9, v/v) for oral (P.O.) dosing. Drugs were prepared fresh daily and the concentration was adjusted so that the animals received <200 μl of solvent/dose/animal. […] Further dilutions of blood were made with bicine-buffered saline with glucose, as needed. Animals showing distress symptoms at any stage of the study were euthanized. All experiments were conducted following protocols approved by the Institutional Animal Care and Use Committee (IACUC).

[4] = male
[5] = male, BALB/c, mouse, brain, 40 mg/kg PO single dose
[6] = male, BALB/c, mouse, plasma, 40 mg/kg PO single dose

Fc1cccc(COc2ccc(Nc3ncnc4ccc(-c5cccc(N6CCOCC6)c5)cc34)cc2Cl)c1 [Compound 23a, N-(3-Chloro-4-((3-fluorobenzyl)oxy)phenyl)-6-(3-morpholinophenyl)quinazolin-4-amine]
EC50 ([1]; 48 h, concentration giving 50% inhibition of growth of T brucei brucei Lister 427 cells, 48 h, values ±7%, read-out: Tbb EC50): 42 nM
EC50 ([1]; read-out: EC50 expressed as ng/mL, T. brucei EC50 converted, FIG. 1 legend): 22.7 ng/mL
EC50 (T. cruzi): 1800 nM
EC50 (L. major amastigote): 8000 nM
EC50 (P. falciparum D6): 230 nM
EC50 (P. falciparum W2): 680 nM
EC50 (P. falciparum C235): 370 nM
logD (logD): 3.2
Solubility [2]: <1 µM
CNS fraction ([3]; 40 mg/kg single oral dose): 5%
time plasma levels were in excess of the EC50 ([3]; 40 mg/kg single oral dose): > 12 h
AUC(0-t) [3, 5]: 92.5 ng·h/mL
Cmax [3, 5]: 26 ng/mL
Tmax [3, 5]: 0.5 h
AUC(0-inf) [3, 6]: 2000 ng·h/mL
AUC(0-t) [3, 6]: 1950 ng·h/mL
Cmax [3, 6]: 153 ng/mL
Tmax [3, 6]: 2 h
delay of detection of trypanosomes in the blood (T. brucei brucei CA427; 10 mg/kg twice per day ip): 24 h
survival on day 8 (T. brucei brucei CA427; 10 mg/kg twice per day ip, all untreated mice had died): all alive
mouse survival life span (T. brucei brucei CA427; 10 mg/kg twice per day ip, control group 5 days): 9 days
time without parasites detected in the blood of infected mice (T. brucei brucei CA427; 40 mg/kg once per day from 24 h after infection, control positive on day 2): 3 days
drug-related toxicity (T. brucei brucei CA427; multiday regimen at 40 mg/kg): drug-related toxicity was observed
Human liver microsomes median CLint: 63.03 µL/min/mg
Male rat hepatocytes median CLint [4]: 44.5 μl/min/1E6 cells
